Assays:
Conditions in all cases: 72 h
Caco-2 [1] = assay: cell viability relative to DMSO; higher = less toxic
Calu-3 [2] = assay: as above
HepG2 [3] = assay: as above
U2OS [4] = assay: as above
Vero E6 [5] = assay: as above
Caco-2 [6] = assay: relative viability EC50 (midpoint between 100% and the lowest measured viability); higher = less toxic
Calu-3 [7] = assay: as above
HepG2 [8] = assay: as above
U2OS [9] = assay: as above
Vero E6 [10] = assay: as above
Caco-2 [11] = assay: drug sensitivity score (DSS) for viability; higher = more toxic; extreme values may be limits of the assay
Calu-3 [12] = assay: as above
HepG2 [13] = assay: as above
U2OS [14] = assay: as above
Vero E6 [15] = assay: as above

| SMILES | cell viability (Caco-2 [1]; 1 nM) | cell viability (Caco-2 [1]; 10 nM) | cell viability (Caco-2 [1]; 100 nM) | cell viability (Caco-2 [1]; 1000 nM) | cell viability (Caco-2 [1]; 10000 nM) | cell viability (Calu-3 [2]; 1 nM) | cell viability (Calu-3 [2]; 10 nM) | cell viability (Calu-3 [2]; 100 nM) | cell viability (Calu-3 [2]; 1000 nM) | cell viability (Calu-3 [2]; 10000 nM) | cell viability (HepG2 [3]; 1 nM) | cell viability (HepG2 [3]; 10 nM) | cell viability (HepG2 [3]; 100 nM) | cell viability (HepG2 [3]; 1000 nM) | cell viability (HepG2 [3]; 10000 nM) | cell viability (U2OS [4]; 1 nM) | cell viability (U2OS [4]; 10 nM) | cell viability (U2OS [4]; 100 nM) | cell viability (U2OS [4]; 1000 nM) | cell viability (U2OS [4]; 10000 nM) | cell viability (Vero E6 [5]; 1 nM) | cell viability (Vero E6 [5]; 10 nM) | cell viability (Vero E6 [5]; 100 nM) | cell viability (Vero E6 [5]; 1000 nM) | cell viability (Vero E6 [5]; 10000 nM) | relative viability EC50 (Caco-2 [6]) | relative viability EC50 (Calu-3 [7]) | relative viability EC50 (HepG2 [8]) | relative viability EC50 (U2OS [9]) | relative viability EC50 (Vero E6 [10]) | drug sensitivity score (Caco-2 [11]) | drug sensitivity score (Calu-3 [12]) | drug sensitivity score (HepG2 [13]) | drug sensitivity score (U2OS [14]) | drug sensitivity score (Vero E6 [15]) |
| --- | --- | --- | --- | --- | --- | --- | --- | --- | --- | --- | --- | --- | --- | --- | --- | --- | --- | --- | --- | --- | --- | --- | --- | --- | --- | --- | --- | --- | --- | --- | --- | --- | --- | --- | --- |
| CN1Cc2c(N)cccc2C(c2ccccc2)C1 (stereo not given) [nomifensine] | 97.1% | 95% | 98% | 94.6% | 103% | 104% | 98.2% | 100% | 106% | 96.8% | 106% | 110% | 93.5% | 103% | 97.3% | 101% | 100% | 102% | 101% | 96.3% | 97.9% | 96.8% | 94.2% | 99.4% | 110% | > 10 µM | > 10 µM | > 10 µM | > 10 µM | > 10 µM | 0 | 0 | 0 | 0 | 0 |
| CCCCc1nc(-c2ccc(OCCCN(CC)CC)cc2)cn1-c1ccc(Oc2ccc(Cl)cc2)cc1 [azeliragon] | 101% | 97% | 99.4% | 93.5% | 4.5% | 109% | 105% | 99.4% | 98.9% | 8.5% | 95.1% | 94.8% | 90.2% | 94% | 0.1% | 97.7% | 97.8% | 98.9% | 91% | 30.4% | 96.2% | 105% | 91.8% | 99.5% | 0% | 2.61 µM | 3.08 µM | 2.69 µM | 2.12 µM | 3.13 µM | 6.3 | 5.2 | 6.4 | 5.3 | 5.7 |
| Cc1nc2cnc3ccc(C#Cc4cccnc4)cc3c2n1-c1ccc(C(C)(C)C#N)cc1 [BAG-956] | 97.8% | 101% | 79.7% | 33.5% | 33.3% | 92.7% | 96.2% | 79% | 27.7% | 30.2% | 104% | 103% | 93.3% | 62.3% | 41.4% | 97.4% | 101% | 88.8% | 24.9% | 23.8% | 104% | 103% | 97.5% | 42.6% | 35.3% | 0.139 µM | 0.144 µM | 0.604 µM | 0.202 µM | 0.41 µM | 15.3 | 16.3 | 7.9 | 15.8 | 10.8 |
| CN1CCN(c2ccc(/C=C(\C#N)c3ccccc3Br)cc2)CC1 [DG-172] | 102% | 99.5% | 100% | 95.5% | 88.5% | 114% | 102% | 104% | 100% | 90.6% | 101% | 99.9% | 104% | 105% | 82.1% | 105% | 101% | 106% | 100% | 94.8% | 106% | 108% | 104% | 105% | 91.3% | > 10 µM | > 10 µM | > 10 µM | > 10 µM | > 10 µM | 0.2 | 0 | 0.3 | 0 | 0 |
| CN1C(=O)COc2c(C(=O)NC3CN4CCC3CC4)cc(Cl)cc21 (stereo not given) [azasetron] | 98.4% | 94.9% | 96.6% | 98.7% | 98.5% | 91.4% | 93.1% | 103% | 110% | 111% | 91.6% | 99% | 87.9% | 94.5% | 96.2% | 101% | 91.4% | 95.6% | 99% | 99.2% | 102% | 94.4% | 91.8% | 86.2% | 105% | > 10 µM | > 10 µM | > 10 µM | > 10 µM | > 10 µM | 0 | 0 | 0 | 0 | 0 |
| CCCCC#Cc1nc(NC)c2ncn([C@@H]3O[C@H](CO)[C@@H](O)[C@H]3O)c2n1 [HEMADO] | 103% | 89% | 102% | 104% | 102% | 102% | 108% | 84.6% | 102% | 91.1% | 111% | 103% | 99.7% | 103% | 104% | 102% | 102% | 96.1% | 103% | 101% | 110% | 101% | 105% | 105% | 98.5% | > 10 µM | > 10 µM | > 10 µM | > 10 µM | > 10 µM | 0 | 0 | 0 | 0 | 0 |
| COc1ccc(N(C(=O)Oc2c(C)cccc2C)c2ccnc(Nc3ccc(N4CCN(C)CC4)cc3)n2)c(OC)c1 [WH-4-023] | 101% | 89.4% | 102% | 114% | 103% | 93.3% | 104% | 95.8% | 104% | 89.8% | 92.7% | 91.9% | 93.2% | 100% | 101% | 101% | 96.8% | 98.1% | 107% | 99.8% | 95.4% | 97.4% | 96.7% | 93.7% | 84.8% | > 10 µM | > 10 µM | > 10 µM | > 10 µM | > 10 µM | 0 | 0 | 0 | 0 | 0.2 |

Source: the supplement of paper PMC13380429
